The record followed here is patent US20240327393A1 (SIRONAX LTD., priority 2021, published 2024).

Like-named read-outs stand apart in the source and are kept apart here.

The assay relates to HT-1080 (ATCC, CCL-121) cells. Put plainly: HT-1080 cell viability assay with ferroptosis inducer RSL3 (Cell Titer-Glo). Format: cell-based. As to conditions: Homo sapiens, HT-1080 cells treated with RSL3, 3-fold, 10-point dilution, 1.1 μM highest concentration, read-out: EC50 (nM), ferroptosis inhibitory activity. An outline of the steps:
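EC50 was derived by sigmoidal dose-response regression of CellTiter-Glo luminescence viability, expressed relative to untreated wells. Compounds were tested in a ten-point, threefold dilution series (highest 1.1 μM) in the presence of the ferroptosis inducer RSL3. HT-1080 cells had been seeded at 6000 per well and grown overnight first.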
(In general: ATP-based viability assays read luminescence as a measure of living cells.)

In the case of `C[C@@H]1C[C@H](c2ccc(Nc3ccc4c(c3)OCC(=O)N4)cc2)CCO1` [Compound 484, 7-((4-((2R,4R)-2-methyltetrahydro-2H-pyran-4-yl)phenyl)amino)-2H-benzo[b][1,4]oxazin-3(4H)-one], the half-maximal effective concentration (EC50) (Table 3) lay in the range of 0.1 to 100 nM.
Same read-out and setting: in the case of `Cc1cc(N2CCC(F)CC2)ccc1Nc1ccc2c(c1)OCC(=O)N2` [Compound 518, 7-((4-(4-fluoropiperidin-1-yl)-2-methylphenyl)amino)-2H-benzo[b][1,4]oxazin-3(4H)-one] it was 0.1 to 100 nM.
As for `CC1CCN(c2ccc(Nc3ccc4c(=O)n(C)n(C)c4c3)cc2)CC1` [Compound 250, 1,2-dimethyl-6-((4-(4-methylpiperidin-1-yl)phenyl)amino)-1,2-dihydro-3H-indazol-3-one], where the note is “Table 2”, the EC50 fell in the range of 0.1 to 100 nM.
Take `COc1cc(N2CCC(C(F)(F)F)CC2)ccc1Nc1ccc2c(c1)n(C)c(=O)n2C` [Compound 375, 5-((2-methoxy-4-(4-(trifluoromethyl)piperidin-1-yl)phenyl)amino)-1,3-dimethyl-1,3-dihydro-2H-benzo[d]imidazol-2-one]: the EC50 (Table 2) lay in the range of 0.1 to 100 nM.
Regarding `COC(C)(C)C1CCN(c2ccc(Nc3ccc4c(c3)OCC(=O)N4)cc2)CC1` [Compound 560, 7-((4-(4-(2-methoxypropan-2-yl)piperidin-1-yl)phenyl)amino)-2H-benzo[b][1,4]oxazin-3(4H)-one], the EC50 (Table 3) was 0.1 to 100 nM.
Turning to `Cc1cc(N2CCC(C)C2)ccc1Nc1ccc2c(c1)OCC(=O)N2` (stereo not drawn) [Compound 604, 7-((2-methyl-4-(3-methylpyrrolidin-1-yl)phenyl)amino)-2H-benzo[b][1,4]oxazin-3(4H)-one], for the setting “Table 3”, the EC50 is 0.1 to 100 nM.
With `Cn1cncc1CN1Cc2cc(Nc3ccc(N4CCC(C(F)(F)F)CC4)cc3)ccc2C1=O` [Compound 248, 2-((1-methyl-1H-imidazol-5-yl)methyl)-5-((4-(4-(trifluoromethyl)piperidin-1-yl)phenyl)amino)isoindolin-1-one], the EC50 (Table 2) was 0.1 to 100 nM.
Take `CN1CCN(CC(=O)N2Cc3ccc(Nc4ccc(N5CCCCC5)cc4)cc3C2)CC1` [Compound 163, 2-(4-methylpiperazin-1-yl)-1-(5-((4-(piperidin-1-yl)phenyl)amino)isoindolin-2-yl)ethan-1-one]: the EC50 (Table 2) was 0.1 to 100 nM.
`CC(C)(C)C(=O)N1CCOc2cc(Nc3ccc(N4CCC(C(F)(F)F)CC4)cc3)ccc21` [Compound 18, 2,2-dimethyl-1-(7-((4-(4-(trifluoromethyl)piperidin-1-yl)phenyl)amino)-2,3-dihydro-4H-benzo[b][1,4]oxazin-4-yl)propan-1-one]: where the note is “Table 2”, the EC50 lay in the range of 0.1 to 100 nM.
Still for that read-out and setting: in the case of `CNCCn1c(=O)oc2ccc(Nc3ccc(N4CC(C)OC(C)C4)cc3)cc21` (stereo not drawn) [Compound 427, 5-((4-(2,6-dimethylmorpholino)phenyl)amino)-3-(2-(methylamino)ethyl) benzo[d]oxazol-2(3H)-one] it was 0.1 to 100 nM.
With `CN1C(=O)COc2cc(Nc3ccc4c(c3)CCCC4(C)C)ccc21` [Compound 37, 7-((5,5-dimethyl-5,6,7,8-tetrahydronaphthalen-2-yl)amino)-4-methyl-2H-benzo[b][1,4]oxazin-3(4H)-one], under “Table 2”, the EC50 lay within 0.1 to 100 nM.
On to `Cc1cc(N2CC(F)(F)C2)ccc1Nc1ccc2c(c1)OCC(=O)N2` [Compound 576, 7-((4-(3,3-difluoroazetidin-1-yl)-2-methylphenyl)amino)-2H-benzo[b][1,4]oxazin-3(4H)-one], for which the EC50 (Table 3) is 0.1 to 100 nM.
`CCCCOc1ccc(Nc2ccc3c(c2)OCC(=O)N3C)cc1` [Compound 5, 7-((4-butoxyphenyl)amino)-4-methyl-2H-benzo[b][1,4]oxazin-3(4H)-one]: the 50% effective concentration (EC50) (Table 2) fell in the range of 0.1 to 100 nM.
As for `CCN1Cc2ccc(Nc3ccc(N4CCC(C)CC4)cc3)cc2C1` [Compound 176, 2-ethyl-N-(4-(4-methylpiperidin-1-yl)phenyl)isoindolin-5-amine], the EC50 (Table 2) fell in the range of 0.1 to 100 nM.
For the molecule `Cc1cc(N2CCC(C(F)(F)F)CC2)ccc1Nc1ccc2c(c1)CNC(=O)N2` [Compound 535, 6-((2-methyl-4-(4-(trifluoromethyl)piperidin-1-yl)phenyl)amino)-3,4-dihydroquinazolin-2(1H)-one], the EC50 (Table 3) fell in the range of 0.1 to 100 nM.
In the case of `Cc1cc(N2CC(O)(C(F)(F)F)C2)ccc1Nc1ccc2c(c1)OCC(=O)N2` [Compound 632, 7-({4-[3-hydroxy-3-(trifluoromethyl)azetidin-1-yl]-2-methylphenyl}amino)-2,4-dihydro-1,4-benzoxazin-3-one], under “Table 3”, the EC50 fell in the range of 0.1 to 100 nM.
As for `CN(CC(F)(F)F)c1ccc(Nc2ccc3c(c2)OCC(=O)N3C)cc1` [Compound 134], the EC50 (Table 2) lay within 0.1 to 100 nM.
`CN(C)CCn1c(=O)oc2ccc(Nc3ccc(N4CCC(C(F)(F)F)CC4)cc3)cc21` [Compound 429, 3-(2-(dimethylamino)ethyl)-5-((4-(4-(trifluoromethyl)piperidin-1-yl)phenyl)amino)benzo[d]oxazol-2(3H)-one]: the EC50 (Table 2) lay in the range of 0.1 to 100 nM.
Regarding `CC1CN(c2ccc(Nc3ccc4c(c3)CN(C)C4)cc2)CC(C)O1` (stereo not drawn) [Compound 430, N-(4-(2,6-dimethylmorpholino)phenyl)-2-methylisoindolin-5-amine], the EC50 (Table 2) lay within 0.1 to 100 nM.
For `COCCn1c(=O)n(C)c2cc(Nc3ccc(N4CCC(C(F)(F)F)CC4)cc3)ccc21` [Compound 354, 1-(2-methoxyethyl)-3-methyl-5-((4-(4-(trifluoromethyl)piperidin-1-yl)phenyl)amino)-1,3-dihydro-2H-benzo[d]imidazol-2-one], the EC50 (Table 2) was 0.1 to 100 nM.
For `CC1CCN(c2ccc(Nc3ccc4ccn(C)c4c3)cc2)CC1` [Compound 330, 1-methyl-N-(4-(4-methylpiperidin-1-yl)phenyl)-1H-indol-6-amine], the EC50 (Table 2) lay within 0.1 to 100 nM.
As for `Cc1cc(N2CCC(C(F)(F)F)CC2)ccc1Nc1ccc2c(c1)CN(C)C(=O)N2` [Compound 566, 3-methyl-6-({2-methyl-4-[4-(trifluoromethyl)piperidin-1-yl]phenyl}amino)-1,4-dihydroquinazolin-2-one], the EC50 (Table 3) is 0.1 to 100 nM.
Take `COc1ccc(C)cc1Nc1ccc2c(c1)CN(C)C2=O` [Compound 231, 5-((2-methoxy-5-methylphenyl)amino)-2-methylisoindolin-1-one]: where the note is “Table 2”, the EC50 fell in the range of 0.1 to 100 nM.
Consider `CN1C(=O)COc2cc(Nc3ccc(N4CCC(C(F)(F)F)CC4)cc3)c(F)cc21` [Compound 156, 6-fluoro-4-methyl-7-((4-(4-(trifluoromethyl)piperidin-1-yl)phenyl)amino)-2H-benzo[b][1,4]oxazin-3(4H)-one], for which, for the setting “Table 2”, the EC50 lay in the range of 0.1 to 100 nM.
On to `COc1ncc(Nc2ccc3c(c2)n(C)c(=O)n3C)cn1` [Compound 319, 5-((2-methoxypyrimidin-5-yl)amino)-1,3-dimethyl-1,3-dihydro-2H-benzo[d] imidazole-2-one], for which the EC50 (Table 2) lay within 0.1 to 100 nM.
Same read-out and setting: in the case of `CC1CN(c2ccc(Nc3ccc4c(c3)ncn4C)cc2)CC(C)O1` (stereo not drawn) [Compound 434, N-(4-(2,6-dimethylmorpholino)phenyl)-1-methyl-1H-benzo[d]imidazol-5-amine] it was 0.1 to 100 nM; in that of `COC1(C(F)(F)F)CCN(c2ccc(Nc3ccc4c(c3)OCC(=O)N4C)c(C)c2)CC1` [Compound 129, 7-((4-(4-methoxy-4-(trifluoromethyl)piperidin-1-yl)-2-methylphenyl)amino)-4-methyl-2H-benzo[b][1,4]oxazin-3(4H)-one], 0.1 to 100 nM; in that of `CN1C(=O)COc2cc(Nc3ccc(OC4CCCCC4)cc3)ccc21` [Compound 7, 7-((4-(cyclohexyloxy)phenyl)amino)-4-methyl-2H-benzo[b][1,4]oxazin-3(4H)-one], 0.1 to 100 nM.
In the case of `Cc1cc(N2CCC(O)(C(F)(F)F)CC2)ccc1Nc1ccc2c(c1)OCC(=O)N2` [Compound 509, 7-((4-(4-hydroxy-4-(trifluoromethyl)piperidin-1-yl)-2-methylphenyl)amino)-2H-benzo[b][1,4]oxazin-3(4H)-one], the EC50 (Table 3) lay in the range of 0.1 to 100 nM.
As to `CNCCCn1ncc2cc(Nc3ccc(N4CCC(C(F)(F)F)CC4)cc3)ccc21` [Compound 414, 1-(3-(methylamino)propyl)-N-(4-(4-(trifluoromethyl)piperidin-1-yl)phenyl)-1H-indazol-5-amine], under “Table 2”, the EC50 lay within 0.1 to 100 nM.
Consider `Cc1cc(N2CCC(C(F)(F)F)CC2)ccc1Nc1ccc2c(c1)CC(N)C(=O)N2` (stereo not drawn) [Compound 598, 3-amino-6-((2-methyl-4-(4-(trifluoromethyl)piperidin-1-yl)phenyl)amino)-3,4-dihydroquinolin-2(1H)-one], for which the EC50 (Table 3) fell in the range of 0.1 to 100 nM.
Regarding `O=C1COc2cc(Nc3ccc(N4CCC(F)CC4)cc3)cnc2N1` [Compound 554, 7-((4-(4-fluoropiperidin-1-yl)phenyl)amino)-2H-pyrido[3,2-b][1,4]oxazin-3(4H)-one], the EC50 (Table 3) was 0.1 to 100 nM.
In the case of `CC(C)N1Cc2cc(Nc3ccc(N4CCC(C(F)(F)F)CC4)cc3)ccc2C1=O` [Compound 210, 2-isopropyl-5-((4-(4-(trifluoromethyl)piperidin-1-yl)phenyl)amino) isoindolin-1-one], the EC50 (Table 2) lay in the range of 0.1 to 100 nM.
`Cc1cc(N2CCC(C(F)(F)F)CC2)ccc1Nc1ccc2c(c1)OCC(=O)NC2` [Compound 608, 8-((2-methyl-4-(4-(trifluoromethyl)piperidin-1-yl)phenyl)amino)-4,5-dihydrobenzo[f][1,4]oxazepin-3(2H)-one]: the EC50 (Table 3) lay within 0.1 to 100 nM.
The same measure, in the same setting: the value for `Cc1cc(N2CCCC2)ccc1Nc1ccc2c(c1)OCC(=O)N2` [Compound 563, 7-((2-methyl-4-(pyrrolidin-1-yl)phenyl)amino)-2H-benzo[b][1,4]oxazin-3(4H)-one] was 0.1 to 100 nM.
In the case of `Cc1c(Nc2ccc3c(c2)n(C)c(=O)n3C)ccc(N2CCC(C)CC2)c1C` [Compound 281, 5-((2,3-dimethyl-4-(4-methylpiperidin-1-yl)phenyl)amino)-1,3-dimethyl-1,3-dihydro-2H-benzo[d]imidazol-2-one], under “Table 2”, the EC50 lay in the range of 0.1 to 100 nM.

A word on the EC50: it is the concentration at which the effect is half-maximal.
